# Test results: patent US20230263757A1, “DISINFECTING WIPE KIT FOR CENTRAL VENOUS ACCESS DEVICES” (SterileCare Inc., priority 2022, published 2023)
# Structures can show the parent of a compound that is named as a salt. Where two headings read alike, the source gives them in different places.
# Key:
# [1] = system: Pseudomonas aeruginosa SK1; assay: FBEC index, checkerboard on biofilms; type: cell-based; settings: for biofilm eradication concentration in combination (FBEC): EDTA + ethanol
# Protocol: In step (4), microtiter plates are incubated at 37° C. for 24 h. then (6), after incubation, the bacterial and fungal cells were dislodged from the pegs into the recovery medium described above.
# Three 10-μL aliquots, for a total of 30 μL from each well of recovery medium, were spotted on MH agar plates and incubated for 24 h at 37° C. […] The FBEC determination is a modification of the FICI.
# MRSA ON184 [2] = assay: Checkerboard, FMCI; type: cell-based, S. aureus; settings: for microbicidal concentration in combination: EDTA + ethanol
# Protocol: (§1) An assay was made using a minimum inhibitory concentration (MIC) and minimum bactericidal concentration (MBC) and minimum fungicidal concentration (MFC) determination. The MIC was determined by the micro broth dilution method in 96-well plates. Serial two-fold dilutions of tetrasodium EDTA (from 2% to 0.015%), ethanol (from 50% to 0.1%) and chlorhexidine HCl (from 100 μg/mL to 0.025 μg/mL) were prepared in MH broth with a final volume of 90 μL per well. A 10 μL containing 1×10^5 bacterial cells or 2×10^3 fungal cells were added to each well. The inoculated plates were covered with a lid, sealed with Parafilm, and incubated for 24 h at 37° C. with slight rocking on a tilting platform shaker. After incubation, the optical density at 600 nm (OD 600) of the cultures in each well was measured using an xMark™ Microplate Absorbance Spectrophotometer (Bio-Rad). […] MBCs and MFCs were determined by transferring 100 μL from each well with no apparent growth onto appropriate agar plates, followed by incubation for 24 h at 37° C.
# (§2) A fourth composition and solution included tetrasodium EDTA with ethanol or chlorhexidine HCl. This fourth composition and solution were created using checkerboard titration methods using micro broth dilution in 96-well microtiter plates. The concentrations of antimicrobials used were based on previously determined MIC values. Briefly, 200 μL, of two-fold dilutions of tetrasodium EDTA and ethanol or chlorhexidine HCl were prepared in MH or MH II broth with standardized cell suspension. […] Microtiter plates were incubated at 37° C. for 24 h, and the results were analyzed. Each test was performed in duplicate and included a growth control without adding any antimicrobials.
# S. epidermidis SK9 = assay: Checkerboard titration, FICI; type: cell-based, Staphylococcus epidermidis; settings: for concentration in combination: EDTA + ethanol
# Protocol: as §2
# Serratia marcescens SK2 [3] = assay: MIC, micro broth dilution; type: cell-based; settings: alone
# Protocol: as §1
# [4] = system: Stenotrophomonas maltophilia ON17; assay: MIC, micro broth dilution; type: cell-based; settings: alone
# Protocol: as §1
# [5] = system: Pseudomonas aeruginosa SK1; assay: MIC, micro broth dilution; type: cell-based; settings: alone
# Protocol: as §1
# Escherichia coli ON29 [6] = assay: MIC, micro broth dilution; type: cell-based; settings: alone
# Protocol: as §1
# [7] = system: Staphylococcus aureus ON89; assay: MIC, micro broth dilution; type: cell-based; settings: alone
# Protocol: as §1
# Candida albicans SK4b [8] = assay: MIC, micro broth dilution; type: cell-based; settings: alone
# Protocol: as §1
# [9] = system: Staphylococcus epidermidis ON170; assay: MIC, micro broth dilution; type: cell-based; settings: alone
# Protocol: as §1
# Proteus mirabilis ON153 [10] = assay: MIC, micro broth dilution; type: cell-based; settings: alone
# Protocol: as §1
# MRSA ON184 [11] = assay: MBC/MFC determination; type: cell-based, S. aureus; settings: alone
# Protocol: as §1
# C. albicans ON47 = assay: MBC/MFC determination; type: cell-based, Candida albicans; settings: alone
# Protocol: as §1
# E. coli SK2 [12] = assay: Checkerboard, FMCI; type: cell-based, Escherichia coli; settings: for microbicidal concentration in combination: EDTA + ethanol
# Protocol: as §1, §2
# [13] = system: 48-h-old biofilms of bacterial and fungal strains; assay: MBEC assay, 24-h exposure; type: cell-based; settings: 24 h of treatment
# Protocol: A biofilm cultivation cell composition was provided. This fifth composition was created using an MBEC Assay® biofilm inoculator, consisting of a polystyrene lid with 96 downward-protruding pegs and a corresponding base used to grow biofilms. A standardized inoculum was diluted in an appropriate biofilm growth medium to achieve a viable cell count of 1.5×10^6 CFU/mL of bacterial cells or 5×10^5 CFU/mL of fungal cells. Then, 150 μL of this inoculum was transferred into each appropriate well, and the peg lids were inserted into the microtiter plates. The plates were sealed with Parafilm and were incubated at optimum temperature for 48 h with slight rocking for bacteria and shaking at 200 rpm for fungal strains. After incubation, the peg lid was removed from the base and rinsed twice with sterile phosphate-buffered saline (PBS) for 2 min to remove loosely attached non-sessile cells. Before the antimicrobial challenge, the pegs in column 1 (n=8) were considered the biofilm growth control; these pegs were removed from the lids, placed into 200 μL of recovery medium, and analyzed for starting biofilm cell numbers as described below. […] After the antimicrobial challenge, the pegs were rinsed twice with sterile PBS for 2 min and placed into a new 96-well plate containing 200 μL of recovery medium. The recovery plates were sealed with Parafilm, and biofilm cells were dislodged from the pegs by sonication for 30 min with a Branson 3510 bath sonicator. The biofilm cells in the recovery medium were serially diluted, and a drop dilution assay was performed to enumerate the viable cells. MBEC values were determined as the minimum concentration of antimicrobials that yielded a viable cell count at or lower than the 125 CFU/mL detection limit.
# E. coli SK2 [14] = assay: MIC, micro broth dilution; type: cell-based, Escherichia coli; settings: alone
# Protocol: as §1
# E. coli SK2 [15] = assay: Checkerboard titration, FICI; type: cell-based, Escherichia coli; settings: for concentration in combination: EDTA + ethanol
# Protocol: as §2
# Serratia marcescens SK2 [16] = assay: Checkerboard titration, FICI; type: cell-based; settings: for concentration in combination: EDTA + ethanol
# Protocol: as §2
# [17] = system: Stenotrophomonas maltophilia ON17; assay: Checkerboard titration, FICI; type: cell-based; settings: for concentration in combination: EDTA + ethanol
# Protocol: as §2
# [18] = system: Pseudomonas aeruginosa SK1; assay: Checkerboard titration, FICI; type: cell-based; settings: for concentration in combination: EDTA + ethanol
# Protocol: as §2
# Escherichia coli ON29 [19] = assay: Checkerboard titration, FICI; type: cell-based; settings: for concentration in combination: EDTA + ethanol
# Protocol: as §2
# [20] = system: Staphylococcus aureus ON89; assay: Checkerboard titration, FICI; type: cell-based; settings: for concentration in combination: EDTA + ethanol
# Protocol: as §2
# Candida albicans SK4b [21] = assay: Checkerboard titration, FICI; type: cell-based; settings: for concentration in combination: EDTA + ethanol
# Protocol: as §2
# [22] = system: Staphylococcus epidermidis ON170; assay: Checkerboard titration, FICI; type: cell-based; settings: for concentration in combination: EDTA + ethanol
# Protocol: as §2
# Proteus mirabilis ON153 [23] = assay: Checkerboard titration, FICI; type: cell-based; settings: for concentration in combination: EDTA + ethanol
# Protocol: as §2
compound,measurement,setting,value
"[H]/N=C(\N/C(=N/[H])NCCCCCCNC(=N)NC(=N)Nc1ccc(Cl)cc1)Nc1ccc(Cl)cc1 [Chlorhexidine HCl, 1,6-bis(4′-chlorophenylbiguanide) hexane]",Chlorhexidine HCl biofilm eradication concentration in combination (FBEC),[1]; EDTA + chlorhexidine HCl,3.125 µg/mL
same,Chlorhexidine HCl microbicidal concentration in combination,MRSA ON184 [2]; EDTA + chlorhexidine HCl,0.4 µg/mL
same,Chlorhexidine HCl concentration in combination,S. epidermidis SK9; EDTA + chlorhexidine HCl,0.025 µg/mL
same,MIC,Serratia marcescens SK2 [3]; read-out: MIC,12.5 µg/mL
same,MIC,[4]; read-out: MIC,0.8 µg/mL
same,MIC,[5]; read-out: MIC,1.6 µg/mL
same,MIC,Escherichia coli ON29 [6]; read-out: MIC,0.4 µg/mL
same,MIC,[7]; read-out: MIC,0.1 µg/mL
same,MIC,Candida albicans SK4b [8]; read-out: MIC,1.6 µg/mL
same,MIC,[9]; read-out: MIC,0.1 µg/mL
same,MIC,Proteus mirabilis ON153 [10]; read-out: MIC,50 µg/mL
same,MBC/MFC,MRSA ON184 [11],1.6 µg/mL
same,MBC/MFC,C. albicans ON47,3.125 µg/mL
same,Chlorhexidine HCl microbicidal concentration in combination,E. coli SK2 [12]; EDTA + chlorhexidine HCl,0.2 µg/mL
same,concentration alone able to eradicate all established biofilms,[13],100 µg/mL
same,MIC,"E. coli SK2 [14]; Escherichia coli, read-out: MIC",0.4 µg/mL
same,Chlorhexidine HCl concentration in combination,E. coli SK2 [15]; EDTA + chlorhexidine HCl,0.1 µg/mL
same,Chlorhexidine HCl concentration in combination,Serratia marcescens SK2 [16]; EDTA + chlorhexidine HCl,1.5 µg/mL
same,Chlorhexidine HCl concentration in combination,[17]; EDTA + chlorhexidine HCl,0.2 µg/mL
same,Chlorhexidine HCl concentration in combination,[18]; EDTA + chlorhexidine HCl,0.8 µg/mL
same,Chlorhexidine HCl concentration in combination,Escherichia coli ON29 [19]; EDTA + chlorhexidine HCl,0.2 µg/mL
same,Chlorhexidine HCl concentration in combination,[20]; EDTA + chlorhexidine HCl,0.1 µg/mL
same,Chlorhexidine HCl concentration in combination,Candida albicans SK4b [21]; EDTA + chlorhexidine HCl,0.8 µg/mL
same,Chlorhexidine HCl concentration in combination,[22]; EDTA + chlorhexidine HCl,0.05 µg/mL
same,Chlorhexidine HCl concentration in combination,Proteus mirabilis ON153 [23]; EDTA + chlorhexidine HCl,0.8 µg/mL
"O=C([O-])CN(CCN(CC(=O)[O-])CC(=O)[O-])CC(=O)[O-].[Na+].[Na+].[Na+].[Na+] [EDTA, tetrasodium EDTA]",EDTA biofilm eradication concentration in combination (FBEC),[1]; EDTA + chlorhexidine HCl,0.25 % w/v
same,biofilm eradication concentration in combination (FBEC),[1],0.125 % w/v
same,EDTA microbicidal concentration in combination,MRSA ON184 [2]; EDTA + chlorhexidine HCl,0.125 % w/v
same,microbicidal concentration in combination,MRSA ON184 [2],0.031 % w/v
same,EDTA concentration in combination,S. epidermidis SK9; EDTA + chlorhexidine HCl,0.015 % w/v
same,concentration in combination,S. epidermidis SK9,0.015 % w/v
same,MIC,Serratia marcescens SK2 [3],2 % w/v
same,MIC,[4],0.063 % w/v
same,MIC,[5],0.25 % w/v
same,MIC,Escherichia coli ON29 [6],0.5 % w/v
same,MIC,[7],0.063 % w/v
same,MIC,Candida albicans SK4b [8],1 % w/v
same,MIC,[9],0.063 % w/v
same,MIC,Proteus mirabilis ON153 [10],1 % w/v
same,MBC/MFC,MRSA ON184 [11],2 % w/v
same,MBC/MFC,C. albicans ON47,1 % w/v
same,EDTA microbicidal concentration in combination,E. coli SK2 [12]; EDTA + chlorhexidine HCl,0.015 % w/v
same,microbicidal concentration in combination,E. coli SK2 [12],0.25 % w/v
same,concentration alone able to eradicate all established biofilms,[13],4%
same,MIC,E. coli SK2 [14],0.5 % w/v
same,EDTA concentration in combination,E. coli SK2 [15]; EDTA + chlorhexidine HCl,0.008 % w/v
same,concentration in combination,E. coli SK2 [15],0.015 % w/v
same,EDTA concentration in combination,Serratia marcescens SK2 [16]; EDTA + chlorhexidine HCl,0.063 % w/v
same,concentration in combination,Serratia marcescens SK2 [16],0.5 % w/v
same,EDTA concentration in combination,[17]; EDTA + chlorhexidine HCl,0.015 % w/v
same,concentration in combination,[17],0.031 % w/v
same,EDTA concentration in combination,[18]; EDTA + chlorhexidine HCl,0.5 % w/v
same,concentration in combination,[18],0.031 % w/v
same,EDTA concentration in combination,Escherichia coli ON29 [19]; EDTA + chlorhexidine HCl,0.008 % w/v
same,concentration in combination,Escherichia coli ON29 [19],0.25 % w/v
same,EDTA concentration in combination,[20]; EDTA + chlorhexidine HCl,0.008 % w/v
same,concentration in combination,[20],0.015 % w/v
same,EDTA concentration in combination,Candida albicans SK4b [21]; EDTA + chlorhexidine HCl,0.063 % w/v
same,concentration in combination,Candida albicans SK4b [21],0.25 % w/v
same,EDTA concentration in combination,[22]; EDTA + chlorhexidine HCl,0.063 % w/v
same,concentration in combination,[22],0.015 % w/v
same,EDTA concentration in combination,Proteus mirabilis ON153 [23]; EDTA + chlorhexidine HCl,0.063 % w/v
same,concentration in combination,Proteus mirabilis ON153 [23],0.5 % w/v
"CCO [Ethanol, ethanol]",biofilm eradication concentration in combination (FBEC),[1],3.125 % w/v
same,microbicidal concentration in combination,MRSA ON184 [2],3.125 % w/v
same,concentration in combination,S. epidermidis SK9,0.4 % w/v
same,MIC,Serratia marcescens SK2 [3],6.25 % w/v
same,MIC,[4],6.25 % w/v
same,MIC,[5],3.125 % w/v
same,MIC,Escherichia coli ON29 [6],12.5 % w/v
same,MIC,[7],6.25 % w/v
same,MIC,Candida albicans SK4b [8],6.25 % w/v
same,MIC,[9],3.125 % w/v
same,MIC,Proteus mirabilis ON153 [10],6.25 % w/v
same,MBC/MFC,MRSA ON184 [11],25 % w/v
same,MBC/MFC,C. albicans ON47,6.25 % w/v
same,microbicidal concentration in combination,E. coli SK2 [12],6.25 % w/v
same,concentration alone able to eradicate all established biofilms,[13],5%
same,MIC,E. coli SK2 [14],12.5 % w/v
same,concentration in combination,E. coli SK2 [15],6.25 % w/v
same,concentration in combination,Serratia marcescens SK2 [16],3.125 % w/v
same,concentration in combination,[17],0.4 % w/v
same,concentration in combination,[18],3.125 % w/v
same,concentration in combination,Escherichia coli ON29 [19],3.125 % w/v
same,concentration in combination,[20],0.4 % w/v
same,concentration in combination,Candida albicans SK4b [21],1.6 % w/v
same,concentration in combination,[22],0.4 % w/v
same,concentration in combination,Proteus mirabilis ON153 [23],1.6 % w/v
